Here are results for two compounds from patent US6632921B1, “Seryl-lysyl-based peptide and peptidomimetic inhibitors of N-myristoyl transferase as anti-infective agents” (G. D Searle & Co, priority 1995, dated 2003).

The target in one assay is T1, Candida albicans NMT (Candida albicans, UniProt P30418).
T1 construct: made in house; host or cells: E. coli
T1 sequence (P30418 1-451): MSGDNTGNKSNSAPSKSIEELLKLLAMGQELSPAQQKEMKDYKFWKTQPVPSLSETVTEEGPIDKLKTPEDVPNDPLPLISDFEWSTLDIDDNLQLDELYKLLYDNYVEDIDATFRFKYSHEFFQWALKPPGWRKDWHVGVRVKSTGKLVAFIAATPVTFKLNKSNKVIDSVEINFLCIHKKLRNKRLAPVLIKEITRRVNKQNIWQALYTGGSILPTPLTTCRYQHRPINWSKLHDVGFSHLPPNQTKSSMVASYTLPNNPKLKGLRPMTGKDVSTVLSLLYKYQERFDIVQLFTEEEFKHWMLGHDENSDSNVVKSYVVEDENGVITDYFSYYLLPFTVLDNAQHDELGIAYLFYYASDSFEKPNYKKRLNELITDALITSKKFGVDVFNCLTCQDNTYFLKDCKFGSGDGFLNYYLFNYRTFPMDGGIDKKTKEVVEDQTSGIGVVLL
Nature of the assay: NMT enzyme inhibition assay (radiochemical HPLC end-point), Candida NMT. The assay is classed as biochemical. Conditions: for IC50: read-out: IC50 caNMT. How it is done: (§1) Recombinant Candida albicans and human NMTs were expressed and purified from E. coli using previously described protocols. [D. A. Towler et al, Proc. Natl. Acad. Sci. USA, 84, 2707-2712 (1987); R. C. Weigand et al, J. Biol. Chem., 267, 8591-8598 (1992); R. J. Duronio et al, Proc. Natl. Acad. Sci. USA, 89, 4129-4133 (1992)] The ability of compounds to inhibit Candida NMT enzymatic activity was assessed using a radiochemical HPLC end-point assay as described previously for Saccharomyces cerevisiae and human NMTs. [D. Towler et al, Proc. Natl. Acad. Sci. USA, 83, 2812-2816 (1986); W. J. Rocque et al, J. Biol. Chem., 268, 9964-9971 (1991)] The donor substrate [^3H]myristoyl-coenzyme A was enzymatically synthesized from [^3H]myristic acid (50 Ci/mmol, Amersham, Arlington Heights, Ill.) and coenzyme A (Fluka Chemical Corp., Ronkonkoma, N.Y.), and purified as described previously. [W. J. Rocque et al, J. Biol. Chem., 268, 9964-9971 (1991)] The peptide acceptor substrate GNAASARR-NH2 was prepared by solid-phase peptide synthesis using the t-Boc amino acid methodology, followed by HF treatment and reverse-phase HPLC purification. Inhibitor stock solutions were prepared at 22 mM in DMSO; the final concentration of DMSO in each assay was 0.5% (v/v). Inhibition assays were carried out by combining variable amounts of inhibitor or buffer with 0.11 mmoles of [^3H]myristoyl-coenzyme A (1 μCi, 9.09 Ci/mmol) and 2.2 nmoles of GNAASARR-NH2 in a total volume of 60 μL of 0.2 M N-[2-hydroxy-ethyl]piperazine-N′-[2-ethanesulfonic acid], pH 7.4, 2 mM DL-dithiothreitol, 0.2 mM ethylene glycol-bis-(β-aminoethyl ether) N,N,N′,N′-tetraacetic acid, and initiating the reaction by the addition of 50 μL of a Candida NMT solution (7-12 ng/50 μL). Assays with human NMT were identical except that they used 60-75 ng/50 μL of enzyme solution and 0.22 nmoles of GNAASARR-NH2. The reaction was quenched after 10 minutes at 24° C. by the addition of ice-cold MeOH, and the reaction products were separated and measured using C4 reverse-phase HPLC (Vydac 214TP10415; Separations Group, Hesperia, Calif.) and in-line scintillation counting using a Radiomatic A250 (Packard Instruments, Downers Grove, Ill.) and Ecolite(+) (ICN Biomedical, Costa Mesa, Calif.) as the scintillant. Selectivity was determined by calculating the ratio of the IC50 against human NMT to the IC50 against C. albicans NMT.

In the next assay the target is T2, human NMT (Homo sapiens, UniProt P30419).
T2 construct: made in house; host or cells: E. coli
T2 sequence (P30419 1-416 isoform P30419-2): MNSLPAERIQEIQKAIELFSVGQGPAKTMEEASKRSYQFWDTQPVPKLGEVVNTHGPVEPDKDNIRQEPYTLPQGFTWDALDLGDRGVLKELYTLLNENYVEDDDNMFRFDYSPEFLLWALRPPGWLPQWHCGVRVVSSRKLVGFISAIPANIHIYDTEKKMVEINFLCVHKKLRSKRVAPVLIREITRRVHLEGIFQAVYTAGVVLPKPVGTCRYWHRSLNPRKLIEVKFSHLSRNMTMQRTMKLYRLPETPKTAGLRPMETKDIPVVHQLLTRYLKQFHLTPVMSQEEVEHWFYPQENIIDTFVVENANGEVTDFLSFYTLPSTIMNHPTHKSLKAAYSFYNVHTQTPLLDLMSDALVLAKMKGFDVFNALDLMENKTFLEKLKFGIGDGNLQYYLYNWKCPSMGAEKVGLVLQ
Nature of the assay: NMT enzyme inhibition assay (radiochemical HPLC end-point), human NMT. The assay is classed as biochemical. How it is done:
as §1, with “Inhibition assays were carried out by combining variable amounts of inhibitor or buffer with 0.11 mmoles of [^3H]myristoyl-coenzyme A (1 μCi, 9.09 Ci/mmol) and 2.2 nmoles of GNAASARR-NH2 in a total volume of 60 μL of 0.2 M N-[2-hydroxy-ethyl]piperazine-N′-[2-ethanesulfonic acid], pH 7.4, 2 mM DL-dithiothreitol, 0.2 mM ethylene glycol-bis-(β-aminoethyl ether) N,N,N′,N′-tetraacetic acid, and initiating the reaction by the addition of 50 μL of a Candida NMT solution (7-12 ng/50 μL). Assays with human NMT were identical except that they used 60-75 ng/50 μL of enzyme solution and 0.22 nmoles of GNAASARR-NH2.” left out

A further assay has as its system C.trop. As to the kind of experiment: Antifungal susceptibility testing, pH 5.4 assay, different strains of Candida. Conditions: Candida tropicalis, 24 hr. The format is cell-based, C.tropicalis.

Like-named read-outs stand apart in the source and are kept apart here. Bounds are passed on as bounds.

As to `Cc1nccn1CCCCc1ccc(CC(=O)N[C@H](CO)C(=O)N[C@H](CCCCN)C(=O)N[C@H](CC2CCCCC2)C(=O)O)cc1` [Comparator Compound A, D-Alanine, 3-cyclohexyl-N-[N^2-[N-[[4-[4-(2-methyl-1H-imidazol-1-yl)butyl]phenyl]acetyl]-D-seryl]-D-lysyl]-, bis-trifluoroacetate], the IC50 on Candida albicans NMT (Comparator Compound A table) and against human NMT (Comparator Compound A table) was more than 1000 µM in each case. Moreover, the “inhibition of purified C. albicans Nmt in vitro” value against Candida albicans NMT (result in words) is “not an inhibitor”. The same compound gave a half-maximal effective concentration (EC50) in the assay on C.trop. of more than 250 µM.

For `Cc1nccn1CCCCc1ccc(CC(=O)N[C@@H](CO)C(=O)N[C@@H](CCCCN)C(=O)N[C@@H](CC2CCCCC2)C(=O)O)cc1` [Example 2, L-Alanine, 3-cyclohexyl-N-[N^2-[N-[[4-[4-(2-Methyl-1H-imidazol-1-yl)butyl]phenyl]acetyl]-L-seryl]-L-lysyl]-, bis-trifluoroacetate], the IC50 at Candida albicans NMT (Table V) came to 1.4 µM; on human NMT (Table V), 810 µM. For the same compound, the Selectivity on Candida albicans NMT (ratio of IC50 against human NMT to IC50 against C. albicans NMT) was found to be 560. In the assay on C.trop., this compound registered an EC50 of more than 250 µM.

For orientation: IC50 means the concentration needed to halve the response being measured. The term EC50 denotes the concentration needed to bring the measured effect to its halfway point.
